The text below walks through data of patent US20190284148A1, “MICROBIOCIDAL OXADIAZOLE DERIVATIVES” (SYNGENTA PARTICIPATIONS AG, priority 2016, published 2019).

A word on the inhibition: it is how much of the control response was suppressed. One may read the melting point as the temperature, or range, at which the solid turns liquid.

Structures are written as SMILES.

Series [1] relates to Glomerella Lagenarium (Colletotrichum Lagenarium). The experiment in a line: Glomerella lagenarium (Colletotrichum lagenarium) liquid culture / cucumber / preventative (anthracnose). In kind it is cell-based. The conditions noted are these: Colletotrichum orbiculare; 20 ppm in the applied formulation; liquid culture in PDB, 24° C., 3 to 4 days after application; read-out: disease control compared to untreated control (inhibition of growth measured photometrically). The procedure: Mycelia fragments or conidia suspensions of a fungus prepared either freshly from liquid cultures of the fungus or from cryogenic storage, are directly mixed into nutrient broth. DMSO solutions of the test compound (max. 10 mg/ml) are diluted with 0.025% Tween20 by a factor of 50 and 10 μl of this solution is pipetted into a microtiter plate (96-well format). The nutrient broth containing the fungal spores/mycelia fragments is then added to give an end concentration of the tested compound. The test plates are incubated in the dark at 24° C. and 96% relative humidity. The inhibition of fungal growth is determined photometrically after 2 to 7 days, depending on the pathosystem, and percent antifungal activity relative to the untreated check is calculated.
Conidia of the fungus from cryogenic storage are directly mixed into nutrient broth (PDB—potato dextrose broth). After placing a (DMSO) solution of test compound into a microtiter plate (96-well format), the nutrient broth containing the fungal spores is added. The test plates are incubated at 24° C. and the inhibition of growth is measured photometrically 3 to 4 days after application.
The following compounds at 20 ppm in the applied formulation give at least 80% disease control in this test when compared to untreated control under the same conditions, which show extensive disease development.

Series [2] has as its system Puccinia Recondita f. sp. Tritici. Put plainly: Puccinia recondita f. sp. tritici / wheat / leaf disc curative (brown rust). In kind it is in vivo. The settings on record: foliar, 200 ppm in the applied formulation, wheat leaf segments cv. Kanzler, curative (applied 1 day after inoculation), assessed 6 to 8 days after application, read-out: disease control compared to untreated control leaf disks. The procedure:
(§1) Leaf disks or leaf segments of various plant species are cut from plants grown in a greenhouse. The cut leaf disks or segments are placed in multiwell plates (24-well format) onto water agar. The leaf disks are sprayed with a test solution before (preventative) or after (curative) inoculation. Compounds to be tested are prepared as DMSO solutions (max. 10 mg/ml) which are diluted to the appropriate concentration with 0.025% Tween20 just before spraying. The inoculated leaf disks or segments are incubated under defined conditions (temperature, relative humidity, light, etc.) according to the respective test system. A single evaluation of disease level is carried out 3 to 14 days after inoculation, depending on the pathosystem. Percent disease control relative to the untreated check leaf disks or segments is then calculated.
Wheat leaf segments cv. Kanzler are placed on agar in multiwell plates (24-well format). The leaf segments are then inoculated with a spore suspension of the fungus. Plates were stored in darkness at 19° C. and 75% relative humidity. The formulated test compound diluted in water was applied 1 day after inoculation. The leaf segments were incubated at 19° C. and 75% relative humidity under a light regime of 12 hours light/12 hours darkness in a climate cabinet and the activity of a compound was assessed as percent disease control compared to untreated when an appropriate level of disease damage appears in untreated check leaf segments (6 to 8 days after application).
The following compounds at 200 ppm in the applied formulation give at least 80% disease control in this test when compared to untreated control leaf disks under the same conditions, which show extensive disease development.

Series [3] has the same test system. The experiment in a line: Puccinia recondita f. sp. tritici / wheat / leaf disc preventative (brown rust). Format: in vivo. The settings on record: foliar, 200 ppm in the applied formulation, wheat leaf segments cv. Kanzler, preventative (inoculated 1 day after application), assessed 7 to 9 days after application, read-out: disease control compared to untreated control leaf disks. On the procedure: as §1, with “calculated. Wheat leaf segments cv. Kanzler were placed on agar in multiwell plates (24-well format) and sprayed with the formulated test compound diluted in water. The leaf disks were inoculated with a spore suspension of the fungus 1 day after application. The inoculated leaf segments were incubated at 19° C. and 75% relative humidity (rh) under a light regime of 12 hours light/12 hours darkness in a climate cabinet and the activity of a compound was assessed as percent disease control compared to untreated when an appropriate level of disease damage appears in untreated check leaf segments (7 to 9 days after application). The following compounds at 200 ppm in the applied formulation give at least 80% disease control in this test when compared to untreated control leaf disks under the same conditions, which show extensive disease development.” for “calculated.”

Consider `CC(=O)Nc1ccc(-c2noc(C(F)(F)F)n2)cc1C` [Compound 1.3, N-[2-methyl-4-[5-(trifluoromethyl)-1,2,4-oxadiazol-3-yl]phenyl]acetamide], for which the melting point lay in the range of 153 to 179 °C. Also, the inhibition at 20 ppm in series [1] is not below 80%. Besides, the pest or weed control at 200 ppm in series [2] was not below 80%. Further, the pest or weed control at 200 ppm in series [3] is not below 80%.

`COCC(=O)Nc1ccc(-c2noc(C(F)(F)F)n2)cc1C` [Compound 1.5, 2-methoxy-N-[2-methyl-4-[5-(trifluoromethyl)-1,2,4-oxadiazol-3-yl]phenyl]acetamide] had a melting point of 73 to 80 °C. The inhibition at 20 ppm in series [1] was not below 80%. Also, in series [3], the pest or weed control at 200 ppm is not below 80%.

As for `CCC(=O)Nc1ccc(-c2noc(C(F)(F)F)n2)cc1F` [Compound 1.6, N-[2-fluoro-4-[5-(trifluoromethyl)-1,2,4-oxadiazol-3-yl]phenyl]propanamide], the melting point was in the range of 123 to 128 °C. Further, the inhibition at 20 ppm in series [1] is not below 80%. In series [2], the pest or weed control at 200 ppm was not below 80%.

In the case of `CC(=O)Nc1ccc(-c2noc(C(F)(F)F)n2)cc1F` [Compound 1.7, N-[2-fluoro-4-[5-(trifluoromethyl)-1,2,4-oxadiazol-3-yl]phenyl]acetamide], the melting point was 120 to 126 °C. Besides, the inhibition at 20 ppm in series [1] is not below 80%. Moreover, the pest or weed control at 200 ppm in series [2] was not below 80%. Also, the pest or weed control at 200 ppm in series [3] was not below 80%.

`COCC(=O)Nc1ccc(-c2noc(C(F)(F)F)n2)cc1F` [Compound 1.8, N-[2-fluoro-4-[5-(trifluoromethyl)-1,2,4-oxadiazol-3-yl]phenyl]-2-methoxy-acetamide] yielded a melting point of 42 to 46 °C. In addition, the inhibition at 20 ppm in series [1] was not below 80%. The pest or weed control at 200 ppm in series [3] was not below 80%.

Molecule `CCOC(=O)Nc1ccc(-c2noc(C(F)(F)F)n2)cc1F` [Compound 1.9, ethyl N-[2-fluoro-4-[5-(trifluoromethyl)-1,2,4-oxadiazol-3-yl]phenyl]carbamate] showed a melting point of 86 to 91 °C. In addition, in series [1], the inhibition at 20 ppm was not below 80%. The pest or weed control at 200 ppm in series [2] was not below 80%. Also, the pest or weed control at 200 ppm in series [3] was not below 80%.

In turn, `CON(C)C(=O)Nc1ccc(-c2noc(C(F)(F)F)n2)cc1C` [Compound 1.10, 1-methoxy-1-methyl-3-[2-methyl-4-[5-(trifluoromethyl)-1,2,4-oxadiazol-3-yl]phenyl]urea] yielded a melting point of 73 to 76 °C. For the same molecule, the inhibition at 20 ppm in series [1] is not below 80%. Besides, the pest or weed control at 200 ppm in series [2] is not below 80%. The pest or weed control at 200 ppm in series [3] is not below 80%.

In the case of `C=C(C)CONC(=O)Nc1ccc(-c2noc(C(F)(F)F)n2)cc1C` [Compound 1.12, 1-(2-methylallyloxy)-3-[2-methyl-4-[5-(trifluoromethyl)-1,2,4-oxadiazol-3-yl]phenyl]urea], the melting point was 114 to 117 °C. Further, the inhibition at 20 ppm in series [1] is not below 80%. Further, the pest or weed control at 200 ppm in series [3] is not below 80%.

Regarding `C=CCONC(=O)Nc1ccc(-c2noc(C(F)(F)F)n2)cc1C` [Compound 1.13, 1-allyloxy-3-[2-methyl-4-[5-(trifluoromethyl)-1,2,4-oxadiazol-3-yl]phenyl]urea], the melting point is 101 to 104 °C. For the same molecule, the inhibition at 20 ppm in series [1] was not below 80%. Moreover, the pest or weed control at 200 ppm in series [3] is not below 80%.

In the case of `COCCC(=O)Nc1ccc(-c2noc(C(F)(F)F)n2)cc1F` [Compound 1.15, N-[2-fluoro-4-[5-(trifluoromethyl)-1,2,4-oxadiazol-3-yl]phenyl]-3-methoxy-propanamide], the inhibition at 20 ppm in series [1] is not below 80%. Besides, the pest or weed control at 200 ppm in series [2] is not below 80%.

Take `CC(CO)(CCl)C(=O)Nc1ccc(-c2noc(C(F)(F)F)n2)cc1F` (stereo not drawn) [Compound 1.17, 2-(chloromethyl)-N-[2-fluoro-4-[5-(trifluoromethyl)-1,2,4-oxadiazol-3-yl]phenyl]-3-hydroxy-2-methyl-propanamide]: in series [1], the inhibition at 20 ppm is not below 80%. Besides, the pest or weed control at 200 ppm in series [3] is not below 80%.

As to `CCC(COC)C(=O)Nc1ccc(-c2noc(C(F)(F)F)n2)cc1F` (stereo not drawn) [Compound 1.18, N-[2-fluoro-4-[5-(trifluoromethyl)-1,2,4-oxadiazol-3-yl]phenyl]-2-(methoxymethyl) butanamide], in series [1], the inhibition at 20 ppm is not below 80%. In addition, the pest or weed control at 200 ppm in series [2] and in series [3] was not below 80% throughout.

For `COCCCC(=O)Nc1ccc(-c2noc(C(F)(F)F)n2)cc1F` [Compound 1.19, N-[2-fluoro-4-[5-(trifluoromethyl)-1,2,4-oxadiazol-3-yl]phenyl]-4-methoxy-butanamide], in series [1], the inhibition at 20 ppm is not below 80%. Also, in series [3], the pest or weed control at 200 ppm was not below 80%.

Turning to `Cc1cc(-c2noc(C(F)(F)F)n2)ccc1NC(=O)CC#N` [Compound 1.26, 2-cyano-N-[2-methyl-4-[5-(trifluoromethyl)-1,2,4-oxadiazol-3-yl]phenyl]acetamide], in series [1], the inhibition at 20 ppm is not below 80%. The pest or weed control at 200 ppm in series [3] was not below 80%.

For `COC(C)C(=O)Nc1ccc(-c2noc(C(F)(F)F)n2)cc1C` (stereo not drawn) [Compound 1.27, 2-methoxy-N-[2-methyl-4-[5-(trifluoromethyl)-1,2,4-oxadiazol-3-yl]phenyl]propanamide], in series [1], the inhibition at 20 ppm was not below 80%. Further, the pest or weed control at 200 ppm in series [2] was not below 80%.

As for `Cc1cc(-c2noc(C(F)(F)F)n2)ccc1NC(=O)CC(F)(F)F` [Compound 1.28, 3,3,3-trifluoro-N-[2-methyl-4-[5-(trifluoromethyl)-1,2,4-oxadiazol-3-yl]phenyl]propanamide], in series [3], the pest or weed control at 200 ppm is not below 80%.
